The results in this text go back to patent US11718622B2, “Heterocyclic adenosine receptor antagonists” (Exelixis, Inc., priority 2020, dated 2023).

For orientation: IC50 means the concentration at which inhibition is half-maximal. A higher IC50 goes with lower potency.

In assay [1] the target is Adenosine A2a (ADORA2A) receptor (Homo sapiens (Human), UniProt P29274). The assay is described as follows: ADORA2A Receptor Binding Assay. The settings on record: radioligand binding, membrane stock. An outline of the steps: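 Test compounds incubated with A2a receptor membranes and a ³H-labelled radioligand for 2 hours at room temperature, then filtered through PEI-presoaked GF/C plates and washed. Filter-bound ³H counted by scintillation; % inhibition calculated from background-subtracted signal relative to high control.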

Assay [2] has as its target Adenosine A2B (ADORA2B) receptor (Homo sapiens (Human), UniProt P29275). Briefly: ADORA2B Receptor Binding Assay. The settings on record: radioligand binding, membrane stock. Summed up: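 Radioligand competition binding on human A2B receptor membranes, 1 h at room temperature, then filtration through BSA-presoaked GF/C filters and ³H counting by scintillation. Inhibition expressed as % of high control after background subtraction.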

Adenosine A2a (ADORA2A) receptor, sequence (P29274 whole entry): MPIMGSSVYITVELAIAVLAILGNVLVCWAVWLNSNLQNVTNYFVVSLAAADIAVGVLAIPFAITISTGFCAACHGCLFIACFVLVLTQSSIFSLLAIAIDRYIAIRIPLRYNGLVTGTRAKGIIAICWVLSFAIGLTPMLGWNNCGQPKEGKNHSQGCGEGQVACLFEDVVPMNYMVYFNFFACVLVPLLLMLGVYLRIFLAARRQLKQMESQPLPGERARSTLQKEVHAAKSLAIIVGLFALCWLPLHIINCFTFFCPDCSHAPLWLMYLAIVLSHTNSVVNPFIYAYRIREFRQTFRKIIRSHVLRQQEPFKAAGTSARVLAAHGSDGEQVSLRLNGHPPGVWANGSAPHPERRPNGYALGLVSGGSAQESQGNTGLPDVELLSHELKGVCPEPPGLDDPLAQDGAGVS
Adenosine A2B (ADORA2B) receptor, sequence (P29275 whole entry): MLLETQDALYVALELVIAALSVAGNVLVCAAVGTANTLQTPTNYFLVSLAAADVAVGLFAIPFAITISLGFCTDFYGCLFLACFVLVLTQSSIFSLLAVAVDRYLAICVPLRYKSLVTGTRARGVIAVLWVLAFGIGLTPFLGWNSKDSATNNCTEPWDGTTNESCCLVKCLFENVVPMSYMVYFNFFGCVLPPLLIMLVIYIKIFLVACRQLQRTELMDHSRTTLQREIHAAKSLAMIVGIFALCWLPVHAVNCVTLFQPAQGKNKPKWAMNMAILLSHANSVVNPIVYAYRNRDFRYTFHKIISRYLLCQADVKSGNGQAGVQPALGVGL

For `Cc1ccc(-c2nc(NC(=O)C3CC3)cc3nc(C4CNC4)nn23)o1` [Compound 164, N-[2-(azetidin-3-yl)-5-(5-methylfuran-2-yl)-[1,2,4]triazolo[1,5-c]pyrimidin-7-yl]cyclopropanecarboxamide], the results for the IC50 in assay [1] and in assay [2] were 10 to 100 nM and above 1000 nM, respectively.

For the molecule `Cc1nc2c3nc(C(F)(F)F)[nH]c3nc(-c3ccco3)n2n1` [Compound 165, 5-(furan-2-yl)-8-methyl-2-(trifluoromethyl)-3H-[1,2,4]triazolo[5,1-f]purine], the IC50 in assay [1] and in assay [2] was above 1000 nM in each case.

Regarding `Cc1ccc(-c2nc(N)cn3ncnc23)o1` [Compound 166, 8-(5-methylfuran-2-yl)-[1,2,4]triazolo[1,5-a]pyrazin-6-amine], the concentration for half-maximal inhibition (IC50) in assay [1] and in assay [2] was 100 to 1000 nM each time.

Consider `Cc1ccc(-c2nc(NC(=O)C3CC3)cn3ncnc23)o1` [Compound 167, N-[8-(5-methylfuran-2-yl)-[1,2,4]triazolo[1,5-a]pyrazin-6-yl]cyclopropanecarboxamide], for which the IC50 in assay [1] and in assay [2] was below 10 nM each time.

On to `Cc1nc2c(-c3ccc(C)o3)nc(N)cn2n1` [Compound 168, 2-methyl-8-(5-methylfuran-2-yl)-[1,2,4]triazolo[1,5-a]pyrazin-6-amine], for which the IC50 is below 10 nM in assay [1] and 10 to 100 nM in assay [2].

Turning to `Cc1nc2c(-c3ccc(C)o3)nc(NC(=O)C3CC3)cn2n1` [Compound 169, N-[2-methyl-8-(5-methlfuran-2-yl)-[1,2,4]triazolo[1,5-a]pyrazin-6-yl]cyclopropanecarboxamide], the IC50 in assay [1] and in assay [2] was below 10 nM throughout.

Turning to `Cc1nc2c(-c3ccc(F)cc3)nc(N)c(Cl)n2n1` [Compound 170, 5-chloro-8-(4-fluorophenyl)-2-methyl-[1,2,4]triazolo[1,5-a]pyrazin-6-amine], the values for the IC50 in assay [1] and in assay [2] were below 10 nM and 10 to 100 nM, respectively.

Turning to `Cc1nc2c(-c3ccc(F)cc3)nc(N)c(Br)n2n1` [Compound 171, 5-bromo-8-(4-fluorophenyl)-2-methyl-[1,2,4]triazolo[1,5-a]pyrazin-6-amine], the half-inhibitory concentration (IC50) was below 10 nM in assay [1] and 10 to 100 nM in assay [2].

On to `Cc1nc2c(-c3ccccc3)nc(N)c(Br)n2n1` [Compound 172, 5-bromo-2-methyl-8-phenyl-[1,2,4]triazolo[1,5-a]pyrazin-6-amine], for which the half-maximal inhibitory concentration (IC50) in assay [1] and in assay [2] was below 10 nM in each case.

As for `Cc1ccc(-c2nc(NC(=O)C3CC3)cn3nc(C(C)C)nc23)o1` [Compound 173, N-[8-(5-methylfuran-2-yl)-2-propan-2-yl-[1,2,4]triazolo[1,5-a]pyrazin-6-yl]cyclopropanecarboxamide], the concentration for half-maximal inhibition (IC50) in assay [1] and in assay [2] was below 10 nM in each case.

Turning to `CC(=O)Nc1cn2nc(C)nc2c(-c2ccc(C)o2)n1` [Compound 174, N-[2-methyl-8-(5-methylfuran-2-yl)-[1,2,4]triazolo[1,5-a]pyrazin-6-yl]acetamide], the IC50 in assay [1] and in assay [2] was below 10 nM throughout.

For `Cc1nc2c(-c3ccc(C)o3)nc(N)c(Cl)n2n1` [Compound 175, 5-chloro-2-methyl-8-(5-methylfuran-2-yl)-[1,2,4]triazolo[1,5-a]pyrazin-6-amine], the half-inhibitory concentration (IC50) in assay [1] and in assay [2] was below 10 nM in each case.

In the case of `Cc1nc2c(-c3ccccc3)nc(N)c(Cl)n2n1` [Compound 176, 5-chloro-2-methyl-8-phenyl-[1,2,4]triazolo[1,5-a]pyrazin-6-amine], the IC50 in assay [1] and in assay [2] was below 10 nM in each case.

As for `CC(C)c1nc2c(-c3ccccc3)nc(N)c(Cl)n2n1` [Compound 177, 5-chloro-8-phenyl-2-propan-2-yl-[1,2,4]triazolo[1,5-a]pyrazin-6-amine], the IC50 in assay [1] and in assay [2] was below 10 nM throughout.

As to `Nc1nc(-c2ccccc2)c2nc(C(F)(F)F)nn2c1Cl` [Compound 178, 5-chloro-8-phenyl-2-(trifluoromethyl)-[1,2,4]triazolo[1,5-a]pyrazin-6-amine], the half-inhibitory concentration (IC50) in assay [1] and in assay [2] was below 10 nM each time.

Take `CC(=O)Nc1cn2nc(C)nc2c(-c2ccco2)n1` [Compound 179, N-[8-(furan-2-yl)-2-methyl-[1,2,4]triazolo[1,5-a]pyrazin-6-yl]acetamide]: the IC50 in assay [1] and in assay [2] was below 10 nM in each case.

On to `Cc1nc2c(-c3ccco3)nc(NC(=O)C3CC3)cn2n1` [Compound 180, N-[8-(furan-2-yl)-2-methyl-[1,2,4]triazolo[1,5-a]pyrazin-6-yl]cyclopropanecarboxamide], for which the half-maximal inhibitory concentration (IC50) in assay [1] and in assay [2] was below 10 nM throughout.

As for `CC(C)c1nc2c(-c3ccco3)nc(NC(=O)C3CC3)cn2n1` [Compound 181, N-[8-(furan-2-yl)-2-propan-2-yl-[1,2,4]triazolo[1,5-a]pyrazin-6-yl]cyclopropanecarboxamide], the IC50 in assay [1] and in assay [2] was below 10 nM in each case.

For `Cc1nc2c(-c3ccccc3C)nc(N)c(Cl)n2n1` [Compound 182, 5-chloro-2-methyl-8-(2-methylphenyl)-[1,2,4]triazolo[1,5-a]pyrazin-6-amine], the IC50 in assay [1] and in assay [2] was 100 to 1000 nM in each case.

On to `Cc1cccc(-c2nc(N)c(Cl)n3nc(C)nc23)c1` [Compound 183, 5-chloro-2-methyl-8-(3-methylphenyl)-[1,2,4]triazolo[1,5-a]pyrazin-6-amine], for which the IC50 was below 10 nM in assay [1] and 10 to 100 nM in assay [2].

Regarding `Cc1ccc(-c2nc(N)c(Cl)n3nc(C)nc23)cc1` [Compound 184, 5-chloro-2-methyl-8-(4-methylphenyl)-[1,2,4]triazolo[1,5-a]pyrazin-6-amine], the half-inhibitory concentration (IC50) in assay [1] and in assay [2] was below 10 nM each time.

On to `Cc1ccc(-c2nc(NC(=O)C3CC3)cn3nc(C(F)F)nc23)o1` [Compound 185, N-[2-(difluoromethyl)-8-(5-methylfuran-2-yl)-[1,2,4]triazolo[1,5-a]pyrazin-6-yl]cyclopropanecarboxamide], for which the half-inhibitory concentration (IC50) in assay [1] and in assay [2] was below 10 nM each time.

As to `Cc1ccc(-c2nc(NC(=O)C3CC3)cn3nc(N)nc23)o1` [Compound 187, N-[2-amino-8-(5-methylfuran-2-yl)-[1,2,4]triazolo[1,5-a]pyrazin-6-yl]cyclopropanecarboxamide], the IC50 in assay [1] and in assay [2] was below 10 nM each time.

Turning to `Cc1ccc(-c2nc(NC(=O)C3CC3)cn3nc(Br)nc23)o1` [Compound 188, N-[2-bromo-8-(5-methylfuran-2-yl)-[1,2,4]triazolo[1,5-a]pyrazin-6-yl]cyclopropanecarboxamide], the IC50 in assay [1] and in assay [2] was below 10 nM in each case.

Turning to `Cc1ccc(-c2nc(NC(=O)C3CC3)cn3nc(C(F)(F)F)nc23)o1` [Compound 189, N-[8-(5-methylfuran-2-yl)-2-(trifluoromethyl)-[1,2,4]triazolo[1,5-a]pyrazin-6-yl]cyclopropanecarboxamide], the IC50 in assay [1] and in assay [2] was below 10 nM each time.

For `Cc1ccc(-c2nc(NC(=O)C3CC3)cn3nc(CF)nc23)o1` [Compound 190, N-[2-(fluoromethyl)-8-(5-methylfuran-2-yl)-[1,2,4]triazolo[1,5-a]pyrazin-6-yl]cyclopropanecarboxamide], the concentration for half-maximal inhibition (IC50) in assay [1] and in assay [2] was below 10 nM each time.

On to `Cc1ccc(-c2nc(NC(=O)C3CC3)cn3ccnc23)o1` [Compound 192, N-[8-(5-methylfuran-2-yl)imidazo[1,2-a]pyrazin-6-yl]cyclopropanecarboxamide], for which the IC50 in assay [1] and in assay [2] was 10 to 100 nM each time.

For `Cc1ccc(-c2nc(N)cn3cc(C(F)(F)F)nc23)o1` [Compound 195, 8-(5-methylfuran-2-yl)-2-(trifluoromethyl)imidazo[1,2-a]pyrazin-6-amine], the IC50 is 10 to 100 nM in assay [1] and 100 to 1000 nM in assay [2].

Consider `Cc1ccc(-c2nc(NC(=O)C3CC3)cn3c(C)cnc23)o1` [Compound 196, N-[3-methyl-8-(5-methylfuran-2-yl)imidazo[1,2-a]pyrazin-6-yl]cyclopropanecarboxamide], for which the half-maximal inhibitory concentration (IC50) in assay [1] and in assay [2] was 10 to 100 nM throughout.

Take `Cc1ccc(-c2nc(NC(=O)C3CC3)cn3cc(C(F)(F)F)nc23)o1` [Compound 197, N-[8-(5-methylfuran-2-yl)-2-(trifluoromethyl)imidazo[1,2-a]pyrazin-6-yl]cyclopropanecarboxamide]: the IC50 in assay [1] and in assay [2] was below 10 nM throughout.

Turning to `Cc1ccc(-c2nc(N)cn3c(C)cnc23)o1` [Compound 198, 3-methyl-8-(5-methylfuran-2-yl)imidazo[1,2-a]pyrazin-6-amine], the IC50 in assay [1] and in assay [2] was above 1000 nM each time.

`Cc1cn2cc(NC(=O)C3CC3)nc(-c3ccc(C)o3)c2n1` [Compound 199, N-[2-methyl-8-(5-methylfuran-2-yl)imidazo[1,2-a]pyrazin-6-yl]cyclopropanecarboxamide]: the IC50 in assay [1] was below 10 nM; in assay [2], 10 to 100 nM.

On to `Cc1cn2cc(N)nc(-c3ccc(C)o3)c2n1` [Compound 200, 2-methyl-8-(5-methylfuran-2-yl)imidazo[1,2-a]pyrazin-6-amine], for which the IC50 in assay [1] and in assay [2] was 100 to 1000 nM each time.

Take `Cc1cn2c(Cl)c(N)nc(-c3ccccc3)c2n1` [Compound 201, 5-chloro-2-methyl-8-phenylimidazo[1,2-a]pyrazin-6-amine]: the 50% inhibitory concentration (IC50) in assay [1] was 10 to 100 nM; in assay [2], 100 to 1000 nM.

Regarding `Cc1cn2c(Cl)c(N)nc(-c3ccc(F)cc3)c2n1` [Compound 202, 5-chloro-8-(4-fluorophenyl)-2-methylimidazo[1,2-a]pyrazin-6-amine], the half-inhibitory concentration (IC50) in assay [1] and in assay [2] was 100 to 1000 nM in each case.
